According to EP1490333B1, “NEW ATORVASTATIN SALTS AND PHARMACEUTICAL COMPOSITIONS CONTAINING THEM” (Richter Gedeon Nyrt., priority 2002, dated 2003):
Where a name gives a salt, the structure may show the parent alone.

Tests used:
[1] = system: Caco-2 human epithelial cells; conditions: for absorption of atorvastatin: microtablets of the three basic salts placed on the mono layers, compared with each other, Figure 1
Experimental: The essence of the method is, that microtablets are pressed from the drug substances to be examined without adding auxiliaries. The microtablets are made under the same conditions with the same pressing force, therefor the rate of penetration through cell-layer is determined by the intrinsic features of the examined substances.
In the model the absorption of atorvastatin through human epithelial (Caco-2) mono cell-layer was measured in such a way, that the microtablets prepared from the test compounds were placed on the mono cell-layers in the vessels containing physiological saline, then the time dependent amount of the test substance, which passed through the mono cell-layer was determined from the saline solution of the other side of the mono cell-layer by chromatography.
During the experiments 4 µmol base equivalent amounts were placed on the mono cell-layers from the microtablets.
During the experiments the reference compounds were placed on the mono cell-layer (luminal side, which in vivo equals the inner side of the intestine) in solution, the amount of the test substance, which passed through the mono cell-layer (abluminal side, which in vivo equals the blood circulation) was determined by chromatography, then the absorption coefficient characteristic for the absorption of the compounds was calculated (the English abbreviation used in the literature: Papp value).
At the end of the absorption experiments the intactness of the epithelial mono cell-layers was microscopically checked after tainting with toluidine blue. The amount of the test and reference compounds in the samples was determined by HPLC.

[2] = Specific surface of the salts; assay type: physicochemical
[3] = in vivo; cited from earlier work

In the case of `CC(C)c1c(C(=O)Nc2ccccc2)c(-c2ccccc2)c(-c2ccc(F)cc2)n1CCC(O)CC(O)CC(=O)O.N=C(N)NCCCC(N)C(=O)O` [L-arginine salt, Atorvastatin L-arginine salt], the absorption of atorvastatin [1] is reported as “no difference”.

In the case of `CC(C)c1c(C(=O)Nc2ccccc2)c(-c2ccccc2)c(-c2ccc(F)cc2)n1CC[C@@H](O)C[C@@H](O)CC(=O)O.NCCCC[C@H](N)C(=O)O` [atorvastatin L-lysine salt], the specific surface [2] is reported as 1.1 m^2/g, the “absorption (penetration) of atorvastatin in Caco-2 model” value ([1]; compared with polymorph I (crystal form I) of hemi-calcium salt) is reported as “significantly better” and the absorption of atorvastatin [1] is reported as “no difference”. The “appearance of atorvastatin on the abluminal side of the mono cell-layers” value ([1]; microtablets, compared with microtablets of polymorph I of hemi-calcium salt, Figure 2) was “significantly faster”.

In the case of `CC(C)c1c(C(=O)Nc2ccccc2)c(-c2ccccc2)c(-c2ccc(F)cc2)n1CC[C@@H](O)C[C@@H](O)CC(=O)O` [atorvastatin hemi-calcium salt, (3R,5R)-7-[3-phenyl-4-[(phenylamino)carbonyl]-2-(4-fluorophenyl)-5-(1-methyl-ethyl)-pyrrol-1-yl]-3,5-dihydroxy-heptanoic acid], the “part of the applied dose absorbed” value [3] is given as “about 30%”.

`CC(C)c1c(C(=O)Nc2ccccc2)c(-c2ccccc2)c(-c2ccc(F)cc2)n1CC[C@@H](O)C[C@@H](O)CC(=O)O` [atorvastatin hemi-calcium salt, reference compound] gave a specific surface [2] of 8.0 m^2/g.
